According to patent US20080227748A1, “Medicament Made From Laminarine or Oligolaminarines For Treatment of Septicemia and Septic Shock” (LABORATOIRES GOEMAR, priority 2005, published 2008):

Experiment: Feeding treatment with Dectinan-enriched diet before injection of LPS (weight, consumption, glycemia, triglyceridemia, feces)
Design: species or system male Wistar Han rats
Settings: rat, in vivo
Description: The animals selected for the abovesaid studies were male Wistar Han rats (Harlem, Netherlands).
The experiments were carried out on two groups of eight rats each.
The rats of one of the two groups—“control group”—had available to them “ad libitum” a standard feed with the AO4 trade name (UAR, France); the rats of the other group had available to them the same feed but supplemented with the above said laminarin, sold under the “Dectinan” trade name; in a first phase and for four days (−4 to −1), the feed was enriched with 5% by weight of Dectinan and then with 10% by weight in a second phase of 21 days (days 0 to 21); this second group of rats is denoted by “Dectinan group”.
The days on which the various withdrawals and measurements are made are identified in table I below.
a) Before injection of LPS • bodyweight • weight of wet feces and feces after freeze drying (collected over 24 h) • weight of the diet and of the drinking water • taking of blood from the caudal vein: quantitative determination of triglycerides and glucose
In this regard, the values mentioned later represent the mean ±SDM (Standard Deviation of the Mean). […]

laminarin [Dectinan®]
Total consumption of drinking water: 611.5 ± 17.9 mL | Total consumption of feed: 431.5 ± 6.0 g
